Test results reported in PMC6754133 (PLoS ONE, 2019).
Where two headings read alike, the source gives them in different places.

How the values were obtained:
[1] = system: Hh/SMO pathway; experiment: Gli-Luciferase functional assay, NIH 3T3 Gli-RE cells stimulated with ShhN; format: cell-based
Description: After 24 hours, when the cells reached confluency, the culture medium was replaced with 80 μL per well of assay medium [Optimem ± 10 mM HEPES ± 1 mM Sodium Pyruvate + 1× MEM NEAA]. […] Then the cells were stimulated by addition of either ShhN-conditioned media or control media (DMEM±10%BCS) at a final concentration of 10%. Following incubation of the plate for at least 28 hours at 37°C, the cells were simultaneously lysed and supplemented with a luciferase substrate by addition of equal volume of Steady-Glo reagent (Promega, E2520) directly to the assay media. Plates were mixed by pipetting, centrifuged to eliminate foam, incubated for 10 minutes, and analyzed using Perkin Elmer Viktor X luminescence plate reader. The results were analyzed using a non-linear regression (Prism 6, GraphPad Software, La Jolla, CA). Data were normalized to the maximal response observed for ShhN-stimulated cells in the same experiment. A sigmoidal-dose response curve was used as a model for data analysis and IC50 value calculation.

[2] = system: Gli-1 mRNA in Math1-Cre; ptch1-flox/flox cells; experiment: qRT-PCR of Gli-1 mRNA in Math1-Cre; ptch1-flox/flox (PTCH -/-) cells treated ex vivo; format: cell-based, mouse; settings: 10 μM ex vivo, 24 hours
Description: An in vivo medulloblastoma model was established as described before. Briefly, 6–7 weeks old NOD-scid IL-2Rg null (NSG) mice (the Jackson Laboratory) were anesthetized with xylazine-ketamine, and […]. Dissociated Math1-Cre; ptch1-flox/flox cells (1×10^6 cells in 4 μL HBSS)[58] were injected into the mouse brains using murine stereotaxic system (Stoelting Co). The coordinates were: 1.8mm to the right of bregma and 3mm deep from the dura. To disassociate the orthotopic tumor into the single cells for the serial implantation or the ex-vivo experiment, the tumor was dissected from the cerebellum, followed by digestion using Papain (10 U per mL), DNase (250 U) and L-cystein (2 mg) at 37°C for 30 min.
Both post-vivo MB-PDX cells and Math1-Cre; ptch1-flox/flox cells were analyzed for Gli-1 mRNA expression. For that, total RNA was extracted from dissociated single cells using QIAGEN RNease Mini Kit and cDNA was prepared using 1μg RNA with iScript cDNA Synthesis Kit (Bio-Rad). SYBR green-based QPCR was performed using murine primers listed as below (GLI1, Forward 5’- […]-3’, Reverse 5’-[…]-3’, GAPDH Forward 5'-[…] -3', Reverse 5'-[…]-3'). mRNA levels were normalized to GAPDH (dCt = Ct gene of interest–Ct GAPDH) and reported as relative mRNA expression (ddCt = 2-^(dCt sample–dCt control)) in fold change.

[3] = system: Gli-target genes in MB-PDX cells; experiment: qRT-PCR of Gli-target genes in MB-PDX cells in vitro; format: cell-based, human; settings: 10 uM in-vitro, 24 hours
Source text: The results from three independent replicates were used for quantitative analysis and are represented in Fig 7c.
Y-axes show the relative expression levels of mRNA of target genes with respect to mRNA of GAPDH gene.

[4] = system: DAOY cells; experiment: cells; settings: Homo sapiens, 72 h, read-out: Cell viability assay IC50
[5] = system: Mast/stem cell growth factor receptor Kit (KIT_HUMAN); parameters: method as in earlier work; settings: S2/S3 Table; ref [1] Davis MI et al., Nat Biotechnol. 2011; cited from earlier work
[6] = system: Platelet-derived growth factor receptor beta (PGFRB_HUMAN); parameters: method as in earlier work; settings: S2/S3 Table; ref [1] Davis MI et al., Nat Biotechnol. 2011; cited from earlier work
[7] = system: Platelet-derived growth factor receptor alpha (PGFRA_HUMAN); parameters: method as in earlier work; settings: S2/S3 Table; ref [1] Davis MI et al., Nat Biotechnol. 2011; cited from earlier work
[8] = target: Abelson tyrosine-protein kinase 2 (ABL2_HUMAN); settings: S2/S3 Table; ref [1] Davis MI et al., Nat Biotechnol. 2011; cited from earlier work

Q: Which results are given for `Cc1cn(-c2cc(NC(=O)c3ccc(C)c(Nc4nccc(-c5cccnc5)n4)c3)cc(C(F)(F)F)c2)cn1` [Nilotinib]?
A: IC50 ([1]; Mus musculus, NIH3T3, read-out: Hh/SMO pathway inhibition IC50, NIH3T3 Gli-RE cells, ShhN-conditioned media, n = 3): 374 nM; Inhibition of ShhN-induced Hh signaling (in words) ([1]; NIH 3T3 Gli-RE cells, ShhN stimulated): inhibited ShhN-induced Hh signaling in a dose-dependent manner; Span of concentration response curve ([1]; data as percent of the maximum luminescence in the absence of antagonists, Fig 4): 95.05; IC50 ([1]; read-out: Hh/SMO pathway inhibition IC50, NIH3T3 Gli-RE cells, ShhN-conditioned media, n = 3): 374 nM; Gli-1 mRNA expression versus vehicle treated cells [2]: significant reduction in Gli-1 mRNA expression; mRNA expression of Gli-target genes [3]: decreased expression of GLI1, NMYC, HHIP and BCL2 genes; IC50 [4]: 6000 nM; Kd/Ki Value [5]: 29 nM; Kd/Ki Value [6]: 73 nM; Kd/Ki Value [7]: 180 nM; Kd/Ki Value [8]: 26 nM
